Results as given in paper PMC6253998, “Ring-substituted 4-Hydroxy-1H-quinolin-2-ones: Preparation and Biological Activity” (Molecules, 2009).
In brackets after ≈: the same amount, converted by molar mass. Like-named read-outs stand apart in the source and are kept apart here.

Legend:
[1] = system: Trichosporon beigelii 1188; assay: In vitro antifungal broth microdilution test; format: cell-based; details: Trichosporon beigelii, 1188, RPMI 1640, pH 7.0, 35 °C, read-out: MIC/IC80 TB
Method: The broth microdilution test was used for the assessment of in vitro antifungal activity of the synthesized compounds against Candida albicans ATCC 44859 (CA), Candida tropicalis 156 (CT), Candida krusei ATCC 6258 (CK), Candida glabrata 20/I (CG), Trichosporon beigelii 1188 (TB), Aspergillus fumigatus 231 (AF), Absidia corymbifera 272 (AC), and Trichophyton mentagrophytes 445 (TM). Fluconazole (FLU) was used as the standard of a clinically used antimycotic drug. The procedure was performed with twofold dilution of the compounds in RPMI 1640 (Sevapharma a.s., Prague, Czech Republic) buffered to pH 7.0 with 0.165 mol of 3-morpholino-propane-1-sulfonic acid (MOPS, Sigma, Germany). The final concentrations of the compounds ranged from 500 to 0.975 μmol/l. Drug–free controls were included. The MIC was defined as an 80% or greater (IC80) reduction of growth in comparison with the control. The values of MICs were determined after 24 and 48 h of static incubation at 35 °C. For T. mentagrophytes, the final MICs were determined after 72 and 120 h of incubation.

spinach chloroplasts = assay: Inhibition of oxygen evolution rate (OER) / photosynthetic electron transport in spinach chloroplasts; format: biochemical, Spinacia oleracea L.; details: DCPIP photoreduction, pH 7.2
Method: Chloroplasts were prepared from spinach (Spinacia oleracea L.) according to Masarovicova and Kralova. The inhibition of photosynthetic electron transport (PET) in spinach chloroplasts was determined spectrophotometrically (Genesys 6, Thermo Scientific, U.S.A.) using an artificial electron acceptor 2,6-dichlorophenol-indophenol (DCPIP) according to Kralova et al. and the rate of photosynthetic electron transport was monitored as a photoreduction of DCPIP. The measurements were carried out in phosphate buffer (0.02 mol/L, pH 7.2) containing sucrose (0.4 mol/L), MgCl2 (0.005 mol/L) and NaCl (0.015 mol/L). The chlorophyll content was 30 mg/L in these experiments and the samples were irradiated (~100 W/m^2) from 10 cm distance with a halogen lamp (250 W) using a 4 cm water filter to prevent warming of the samples (suspension temperature 22 °C). The studied compounds were dissolved in DMSO due to their limited water solubility. […] The inhibitory efficiency of the studied compounds was expressed by IC50 values, i.e. by molar concentration of the compounds causing 50% decrease in the oxygen evolution rate relative to the untreated control.

[2] = Lipophilicity HPLC determination (capacity factor k / log k); format: physicochemical; details: RP-HPLC, C18 column, MeOH 55.0% / H2O 45.0%, isocratic
Method: Hydrophobicities (log P/Clog P values) of the compounds 1-12 were calculated using two commercially available programs and also measured by means of the reversed phase high performance liquid chromatography (RP-HPLC) method for lipophilicity measurement. The procedure was performed under isocratic conditions with methanol as an organic modifier in the mobile phase using an end-capped non-polar C18 stationary RP column. The capacity factors k were determined and subsequent log k values were calculated.
The HPLC separation module Waters Alliance 2695 XE and Waters Photodiode Array Detector 2996 (Waters Corp., Milford, MA, U.S.A.) were used. A Symmetry® C18 5 μm, 4.6 × 250 mm, Part No. WAT054275, (Waters Corp., Milford, MA, U.S.A.) chromatographic column was used. The HPLC separation process was monitored by Millennium32® Chromatography Manager Software, Waters 2004 (Waters Corp., Milford, MA, U.S.A.). The mixture of MeOH p.a. (55.0%) and H2O-HPLC – Mili-Q Grade (45.0%) was used as a mobile phase. The total flow of the column was 0.9 mL/min, injection 30 μL, column temperature 30 °C and sample temperature 10 °C. The detection wavelength 210 nm was chosen. The KI methanolic solution was used for the dead time (TD) determination. Retention times (tR) were measured in minutes. The capacity factors k were calculated using the Millennium32® Chromatography Manager Software according to formula k = (tR - tD) / tD, where tR is the retention time of the solute, whereas tD denotes the dead time obtained via an unretained analyte. Log k, calculated from the capacity factor k, is used as the lipophilicity index converted to log P scale.

[3] = system: Candida albicans ATCC 44859; assay: In vitro antifungal broth microdilution test; format: cell-based; details: Candida albicans
Method: (§1) Fluconazole (FLU) was used as the standard of a clinically used antimycotic drug. The procedure was performed with twofold dilution of the compounds in […]., Prague, Czech Republic) buffered to pH 7.0 with 0.165 mol of 3-morpholino-propane-1-sulfonic acid (MOPS, Sigma, Germany). […] Drug-free controls were included. The MIC was defined as an 80% or greater (IC80) reduction of growth in comparison with the control.

Candida krusei ATCC 6258 = assay: In vitro antifungal broth microdilution test; format: cell-based; details: Pichia kudriavzevii
Method: as §1

[4] = system: Trichophyton mentagrophytes 445; assay: In vitro antifungal broth microdilution test; format: cell-based
Method: as §1

Candida tropicalis 156 = assay: In vitro antifungal broth microdilution test; format: cell-based
Method: as §1

Absidia corymbifera 272 = assay: In vitro antifungal broth microdilution test; format: cell-based
Method: as §1

[5] = system: Aspergillus fumigatus 231; assay: In vitro antifungal broth microdilution test; format: cell-based
Method: as §1

Candida glabrata 20/I = assay: In vitro antifungal broth microdilution test; format: cell-based; details: Nakaseomyces glabratus, 20/I
Method: as §1

[6] = ATCC44859, 24h, RPMI 1640, pH 7.0, 35 °C, read-out: MIC/IC80 CA
[7] = ATCC44859, 48h, RPMI 1640, pH 7.0, 35 °C, read-out: MIC/IC80 CA
[8] = ATCC6258, 24h, RPMI 1640, pH 7.0, 35 °C, read-out: MIC/IC80 CK
[9] = ATCC6258, 48h, RPMI 1640, pH 7.0, 35 °C, read-out: MIC/IC80 CK
[10] = Trichophyton mentagrophytes, 445, 72h, RPMI 1640, pH 7.0, 35 °C, read-out: MIC/IC80 TM
[11] = Trichophyton mentagrophytes, 445, 120h, RPMI 1640, pH 7.0, 35 °C, read-out: MIC/IC80 TM
[12] = Candida tropicalis, 156, 24h, RPMI 1640, pH 7.0, 35 °C, read-out: MIC/IC80 CT
[13] = Candida tropicalis, 156, 48h, RPMI 1640, pH 7.0, 35 °C, read-out: MIC/IC80 CT
[14] = Lichtheimia corymbifera, 272, 24h, RPMI 1640, pH 7.0, 35 °C, read-out: MIC/IC80 AC
[15] = Lichtheimia corymbifera, 272, 48h, RPMI 1640, pH 7.0, 35 °C, read-out: MIC/IC80 AC
[16] = Aspergillus fumigatus, 231, 24h, RPMI 1640, pH 7.0, 35 °C, read-out: MIC/IC80 AF
[17] = Aspergillus fumigatus, 231, 48h, RPMI 1640, pH 7.0, 35 °C, read-out: MIC/IC80 AF
[18] = 24h, RPMI 1640, pH 7.0, 35 °C, read-out: MIC/IC80 CG
[19] = 48h, RPMI 1640, pH 7.0, 35 °C, read-out: MIC/IC80 CG

Row | SMILES | MIC ([1]; 24h) [µM] | MIC ([1]; 48h) [µM] | IC50 (spinach chloroplasts) [µM] | log k [2] | MIC [3, 6] [µM] | MIC [3, 7] [µM] | MIC (Candida krusei ATCC 6258; [8]) [µM] | MIC (Candida krusei ATCC 6258; [9]) [µM] | MIC [4, 10] [µM] | MIC [4, 11] [µM] | MIC (Candida tropicalis 156; [12]) [µM] | MIC (Candida tropicalis 156; [13]) [µM] | MIC (Absidia corymbifera 272; [14]) [µM] | MIC (Absidia corymbifera 272; [15]) [µM] | MIC [5, 16] [µM] | MIC [5, 17] [µM] | MIC (Candida glabrata 20/I; [18]) [µM] | MIC (Candida glabrata 20/I; [19]) [µM] | further results
1 | O=c1cc(O)c2ccccc2[nH]1 [Compound 1, 4-Hydroxyquinolin-2(1H)-one] | > 500 | > 500 | 925 | 0.0664 | – | – | – | – | – | – | – | – | – | – | – | – | – | – | MIC ([3]; ATCC44859, 24 h, pH 7, read-out: MIC/IC80 CA): > 500 µM; MIC ([3]; ATCC44859, 48 h, pH 7, read-out: MIC/IC80 CA): > 500 µM; MIC (Candida krusei ATCC 6258; ATCC6258, 24 h, pH 7, read-out: MIC/IC80 CK): > 500 µM; MIC (Candida krusei ATCC 6258; ATCC6258, 48 h, pH 7, read-out: MIC/IC80 CK): > 500 µM; MIC ([4]; Trichophyton mentagrophytes, 445, 72 h, pH 7, read-out: MIC/IC80 TM): > 500 µM; MIC ([4]; Trichophyton mentagrophytes, 445, 120 h, pH 7, read-out: MIC/IC80 TM): > 500 µM; MIC (Candida tropicalis 156; Candida tropicalis, 156, 24 h, pH 7, read-out: MIC/IC80 CT): > 500 µM; MIC (Candida tropicalis 156; Candida tropicalis, 156, 48 h, pH 7, read-out: MIC/IC80 CT): > 500 µM; MIC (Absidia corymbifera 272; Lichtheimia corymbifera, 272, 24 h, pH 7, read-out: MIC/IC80 AC): > 500 µM; MIC (Absidia corymbifera 272; Lichtheimia corymbifera, 272, 48 h, pH 7, read-out: MIC/IC80 AC): > 500 µM; MIC ([5]; Aspergillus fumigatus, 231, 24 h, pH 7, read-out: MIC/IC80 AF): > 500 µM; MIC ([5]; Aspergillus fumigatus, 231, 48 h, pH 7, read-out: MIC/IC80 AF): > 500 µM; MIC (Candida glabrata 20/I; 24 h, pH 7, read-out: MIC/IC80 CG): > 500 µM; MIC (Candida glabrata 20/I; 48 h, pH 7, read-out: MIC/IC80 CG): > 500 µM
2 | Cc1ccc2[nH]c(=O)cc(O)c2c1 [Compound 2, 4-Hydroxy-6-methylquinolin-2(1H)-one] | > 500 | > 500 | 157 | 0.3307 | > 500 | > 500 | > 500 | > 500 | > 500 | > 500 | > 500 | > 500 | > 500 | > 500 | > 500 | > 500 | > 500 | > 500 | –
3 | O=C(O)c1ccc2[nH]c(=O)cc(O)c2c1O [Compound 3, 4,5-Dihydroxy-2-oxo-1,2-dihydroquinoline-6-carboxylic acid] | 250 (≈ 55.3 µg/mL) | > 500 | 346 | 0.0002 | 125 (≈ 27.6 µg/mL) | 125 (≈ 27.6 µg/mL) | > 500 | > 500 | > 500 | > 500 | 500 (≈ 111 µg/mL) | > 500 | > 500 | > 500 | > 500 | > 500 | 250 (≈ 55.3 µg/mL) | 250 (≈ 55.3 µg/mL) | –
